From article PMC11855086, “Synthesis, Antimicrobial Activity, and Tyrosinase Inhibition by Multifunctional 3,4-Dihydroxy-Phenyl Peptidomimetics” (International Journal of Molecular Sciences, 2025)
In brackets after ≈: the same amount, converted by molar mass.

Experiments:
E. cloacae (ATCC 49141) = assay: MIC and MBC, microtiter plate technique; assay type: cell-based; details: ATCC49141, Enterobacter cloacae; for MIC: 24 h, resazurin; for MBC: TTC
E. coli R4 (ATCC 39543) = assay: MIC and MBC, microtiter plate technique; assay type: cell-based; details: Escherichia coli; for MBC: ATCC39543; for MIC: ATCC39543, 24 h
[1] = system: E. coli, A. baumannii, P. aeruginosa, E. cloacae, and S. aureus; assay: MIC and MBC over all model bacterial strains (summary statements); assay type: cell-based; details: Gram-positive and Gram-negative bacteria
E. coli R2 (ATCC 39544) = assay: MIC and MBC, microtiter plate technique; assay type: cell-based; details: Escherichia coli; for MBC: ATCC39544; for MIC: ATCC39544, 24 h
[2] = system: P. aeruginosa (ATCC 15442); assay: MIC and MBC, microtiter plate technique; assay type: cell-based; details: ATCC15442, Pseudomonas aeruginosa; for MIC: 24 h, resazurin; for MBC: TTC
E. coli K12 (ATCC 25404) = assay: MIC and MBC, microtiter plate technique; assay type: cell-based; details: Escherichia coli; for MBC: ATCC25404; for MIC: ATCC25404, 24 h
E. coli R3 (ATCC 11775) = assay: MIC and MBC, microtiter plate technique; assay type: cell-based; details: Escherichia coli; for MIC: ATCC11775, 24 h, resazurin; for MBC: ATCC11775, TTC
S. aureus (ATCC 23235) = assay: microbe, parasite or virus in culture; assay type: cell-based; details: Staphylococcus aureus; for MBC: ATCC23235; for MIC: ATCC23235, 24 h
MTT cytotoxicity assay = assay type: cell-based; details: mouse, BALB/c3T3 mouse embryonic fibroblast cells; 24 h of incubation; (±0.14); read-out: half maximum inhibitory concentration (IC50), cytotoxicity
Experimental: Following the completion of MIC and MBC assays on the analyzed bacterial strains, and subsequent treatment with Fpg protein modified by peptidomimetics along with selected antibiotics, a further MTT assay was conducted to evaluate the cytotoxicity of the compounds employing the BALB/c3T3 mouse embryonic fibroblast cell line (Figure 10).
BALB/c3T3 mouse embryonic fibroblast cells were exposed to peptidomimetics across concentrations ranging from 0.5 µM to 3.5 µM and incubated for a duration of 24 h. […] The highest concentrations (2.5 µM and 3.5 µM) inhibited cell viability, which was reduced to 20.2% and 1.0%, respectively (Figure 10 and Figure S40 in the Supplementary Materials).
The cytotoxic effects of aldehyde 1 and peptidomimetics 5a–r on BALB/c3T3 mouse fibroblast cells were assessed utilizing the MTT assay following a 24 h incubation period across five different concentrations (0.5, 1.0, 1.5, 2.5, and 3.5 µM). The MTT assay is predicated upon the capacity of mitochondrial dehydrogenase enzymes to convert the water-soluble tetrazolium salt, 3-([…])-2,5-diphenyltetrazolium bromide (MTT), into an insoluble formazan product, manifesting as dark blue crystals. These formazan crystals are then dissolved in DMSO or isopropanol, forming a colored solution whose intensity is measured spectrophotometrically within the wavelength range of 492–570 nm. The amount of MTT reduced corresponds to the oxidative activity of the mitochondria, which is directly proportional to the number of metabolically active cells in the population under defined experimental conditions. The MTT assay can also be used to assess cell viability in non-dividing metabolically active cells. It is one of the most widely used methods to assess cytotoxic activity and is recommended by international standards organizations as a reference method.

[3] = target: T1, mushroom tyrosinase (mTYR) (Agaricus bisporus, UniProt C7FF04); assay: Tyrosinase assay with L-DOPA as substrate (absorbance at 475 nm); assay type: biochemical; details: 100 µM compound
T1 construct: purchased Sigma-Aldrich (Poznan, Poland); host or cells: Agaricus bisporus (extracted natural enzyme)
T1 sequence (C7FF04 1-392 limits assumed): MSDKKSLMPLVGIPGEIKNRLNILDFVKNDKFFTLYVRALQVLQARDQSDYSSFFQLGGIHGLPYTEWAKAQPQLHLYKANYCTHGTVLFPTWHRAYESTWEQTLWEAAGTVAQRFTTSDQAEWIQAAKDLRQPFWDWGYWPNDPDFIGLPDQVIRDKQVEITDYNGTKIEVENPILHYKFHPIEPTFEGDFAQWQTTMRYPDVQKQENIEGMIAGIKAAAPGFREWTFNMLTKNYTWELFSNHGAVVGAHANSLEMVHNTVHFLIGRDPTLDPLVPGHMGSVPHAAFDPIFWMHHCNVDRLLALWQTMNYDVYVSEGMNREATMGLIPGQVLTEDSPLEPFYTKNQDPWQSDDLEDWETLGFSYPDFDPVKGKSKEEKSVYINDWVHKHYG
From the text: Tyrosinase (Tyr) extracted from Agaricus bisporus (mushroom tyrosinase, mTYR) is commonly used as a model enzyme for human Tyr due to its high purity, stability, and commercial availability. It is frequently used in the selection of TYR inhibitors. Following established literature protocols, L-tyrosine and L-DOPA, which serve as substrates for monophenol and diphenol oxidation, respectively, were used to assess the tyrosinase inhibitory activity of synthesized target compounds [21].
Tyrosinase (Tyr) activity was measured using L-DOPA as substrate and phosphate buffer solution (PBS) as blank control, following the method described by Min He et al. (2022) with an ultraviolet spectrophotometer (Carry-300, Agilent Life Sciences and Chemical Analysis, Santa Clara, CA, USA). […] Before the experiment, 2.9 mL of PBS and 0.1 mL of DMSO were used to account for the influence of the background solvent. The inhibitor solution (100 µL), substrate solution (2.8 mL), and Tyr solution (100 µL) were then added to a quartz colorimetric cuvette. After a one-minute mixing period, the absorption spectra of the mixture were continuously recorded at 475 nm using the UV spectrophotometer (Carry-300) for 5 min over a period of every 30 s. The tyrosinase inhibition rate was calculated as follows:Relative enzyme activity (%) = (A1 − A2)/A1 × 100
A1 = Absorbance of L-DOPA and inhibitor.
A2 = Absorbance of L-DOPA, inhibitor, and tyrosinase.

[4] = system: A. baumannii (ATCC 17978); assay: MIC and MBC, microtiter plate technique; assay type: cell-based; details: ATCC17978, Acinetobacter baumannii; for MIC: 24 h, resazurin; for MBC: TTC
[5] = target: T1, mushroom tyrosinase (mTYR); design: method as in earlier work; details: reported value; cited from earlier work

Row | SMILES | MIC (E. cloacae (ATCC 49141)) [µM] | MBC (E. cloacae (ATCC 49141)) [µM] | MBC (E. coli R4 (ATCC 39543)) [µM] | MIC (E. coli R4 (ATCC 39543)) [µM] | antibacterial spectrum [1] | MBC (E. coli R2 (ATCC 39544)) [µM] | MIC (E. coli R2 (ATCC 39544)) [µM] | MIC [2] [µM] | MBC [2] [µM] | MBC (E. coli K12 (ATCC 25404)) [µM] | MIC (E. coli K12 (ATCC 25404)) [µM] | MIC (E. coli R3 (ATCC 11775)) [µM] | MBC (E. coli R3 (ATCC 11775)) [µM] | MBC (S. aureus (ATCC 23235)) [µM] | MIC (S. aureus (ATCC 23235)) [µM] | IC50 at 24 h (MTT cytotoxicity assay) [µM] | inhibition at 100 µM [3] [%] | MIC [4] [µM] | MBC [4] [µM] | IC50 [5] [µM]
1 | COc1ccc(CN(C(=O)Cc2ccccc2)C(C(=O)NCc2ccccc2)c2ccc(O)c(O)c2)cc1 (stereo not shown) [Compound 5a, N-benzyl-2-(3,4-dihydroxyphenyl)-2-(N-(4-methoxybenzyl)-2-phenylacetamido)-acetamide] | 0.58 (≈ 0.296 µg/mL) | 0.62 (≈ 0.317 µg/mL) | 1.15 (≈ 0.587 µg/mL) | 0.88 (≈ 0.449 µg/mL) | broad-spectrum activity | 0.62 (≈ 0.317 µg/mL) | 0.59 (≈ 0.301 µg/mL) | 0.62 (≈ 0.317 µg/mL) | 0.66 (≈ 0.337 µg/mL) | 0.32 (≈ 0.163 µg/mL) | 0.3 (≈ 0.153 µg/mL) | 0.66 (≈ 0.337 µg/mL) | 0.84 (≈ 0.429 µg/mL) | 0.68 (≈ 0.347 µg/mL) | 0.65 (≈ 0.332 µg/mL) | 1.61 | < 10 | 0.63 (≈ 0.322 µg/mL) | 0.68 (≈ 0.347 µg/mL) | –
2 | O=Cc1ccc(O)c(O)c1 [Compound 1, 3,4-dihydroxybenzaldehyde, reference compound] | 2.75 (≈ 0.38 µg/mL) | 3.04 (≈ 0.42 µg/mL) | 3.58 (≈ 0.494 µg/mL) | 3.57 (≈ 0.493 µg/mL) | – | 2.6 (≈ 0.359 µg/mL) | 2.46 (≈ 0.34 µg/mL) | 3 (≈ 0.414 µg/mL) | 3.33 (≈ 0.46 µg/mL) | 1.82 (≈ 0.251 µg/mL) | 1.39 (≈ 0.192 µg/mL) | 2.85 (≈ 0.394 µg/mL) | 2.96 (≈ 0.409 µg/mL) | 3.33 (≈ 0.46 µg/mL) | 2.67 (≈ 0.369 µg/mL) | – | 15 | 2.82 (≈ 0.39 µg/mL) | 3.55 (≈ 0.49 µg/mL) | 250
